Laboratory results reported in the NIST ThermoML archive (doi:10.1016/j.jct.2018.08.014).

Columns and labels:
[1] = molar heat capacity at constant pressure; settings: 101.33 kPa, Liquid, DSC
[2] = Crystal; DSC

CCCCCCCCCCC(=O)OC [methyl undecanoate]
[1]
Settings	molar heat capacity at constant pressure [J/K/mol]
273 K	381.61
275 K	381.61
277 K	384.11
279 K	380.78
281 K	381.61
283 K	382.44
285 K	382.44
287 K	385.77
289 K	384.11
291 K	384.11
293 K	384.94
295 K	384.94
297 K	385.77
298 K	389.1
299 K	385.77
301 K	386.6
303 K	389.93

Settings	Triple point temperature [K]
[2]	262

CCCCCCCCCC(=O)OCC [ethyl decanoate]
[1]
Settings	molar heat capacity at constant pressure [J/K/mol]
263 K	375.79
265 K	375.79
267 K	375.79
269 K	375.79
271 K	375.79
273 K	374.96
275 K	374.13
277 K	374.96
279 K	376.62
281 K	378.29
283 K	379.12
285 K	379.95
287 K	379.95
289 K	380.78
291 K	380.78
293 K	381.61
295 K	382.44
297 K	383.28
298 K	383.28
299 K	384.11
301 K	385.77
303 K	385.77

Settings	Triple point temperature [K]
[2]	252

CCCCCCOC(=O)CCCCC [hexanoic acid, hexyl ester]
[1]
Settings	molar heat capacity at constant pressure [J/K/mol]
227 K	390.76
229 K	387.43
231 K	385.77
233 K	384.94
235 K	384.11
237 K	384.11
239 K	383.28
241 K	383.28
243 K	383.28
245 K	383.28
247 K	383.28
249 K	383.28
251 K	383.28
253 K	383.28
255 K	384.11
257 K	384.94
259 K	384.94
261 K	384.94
263 K	385.77
265 K	385.77
267 K	385.77
269 K	385.77
271 K	385.77
273 K	384.94
275 K	384.94
277 K	385.77
279 K	386.6
281 K	387.43
283 K	389.1
285 K	389.93
287 K	390.76
289 K	392.42
291 K	392.42
293 K	393.25
295 K	394.08
297 K	394.92
298 K	394.92
299 K	394.92
301 K	396.58
303 K	397.41

Settings	Triple point temperature [K]
[2]	217

CCCCCCCC(=O)OCCCC [butyl octanoate]
[1]
Settings	molar heat capacity at constant pressure [J/K/mol]
241 K	387.43
243 K	387.43
245 K	386.6
247 K	386.6
249 K	386.6
251 K	386.6
253 K	386.6
255 K	387.43
257 K	388.26
259 K	387.43
261 K	387.43
263 K	386.6
265 K	386.6
267 K	386.6
269 K	386.6
271 K	386.6
273 K	386.6
275 K	386.6
277 K	386.6
279 K	388.26
281 K	389.1
283 K	390.76
285 K	391.59
287 K	391.59
289 K	393.25
291 K	394.08
293 K	394.92
295 K	395.75
297 K	396.58
298 K	397.41
299 K	397.41
301 K	398.24
303 K	399.07

Settings	Triple point temperature [K]
[2]	230

CCCCCCCCOC(=O)CCC [octyl butanoate]
[1]
Settings	molar heat capacity at constant pressure [J/K/mol]
227 K	380.78
229 K	379.12
231 K	379.12
233 K	378.29
235 K	376.62
237 K	376.62
239 K	375.79
241 K	374.96
243 K	374.13
245 K	373.3
247 K	373.3
249 K	372.47
251 K	372.47
253 K	372.47
255 K	372.47
257 K	373.3
259 K	372.47
261 K	373.3
263 K	373.3
265 K	373.3
267 K	374.13
269 K	374.13
271 K	374.13
273 K	373.3
275 K	373.3
277 K	373.3
279 K	374.13
281 K	375.79
283 K	376.62
285 K	377.46
287 K	378.29
289 K	379.12
291 K	379.95
293 K	380.78
295 K	381.61
297 K	383.28
298 K	383.28
299 K	384.11
301 K	385.77
303 K	385.77

Settings	Triple point temperature [K]
[2]	218
